Measurements published in PMC10041525, “New Dual Inhibitors of Bacterial Topoisomerases with Broad-Spectrum Antibacterial Activity and In Vivo Efficacy against Vancomycin-Intermediate Staphylococcus aureus” (Journal of Medicinal Chemistry, 2023).
Where “and” joins values, the source holds several entries; their conditions need not be identical. Equal values may be shown once. Read-outs that look alike come from different tables or passages of the source.

Tests used:
[1] = molecular target: T1, DNA gyrase from E. coli (Escherichia coli, UniProt P0AES6); assay: supercoiling HTS plate assay; type: biochemical; settings: IC50 [nM] E. coli DNA gyrase
T1 construct: purchased Inspiralis
Method: (§1) All compounds were tested for their inhibitory activities against DNA gyrase and topo IV from E. coli in supercoiling and relaxation high-throughput plate assays, respectively. Our new series of inhibitors were then tested against a panel of Gram-positive and Gram-negative bacteria.
(§2) Seven concentrations of the inhibitors were used to determine IC50 values which were then calculated with GraphPad Prism 6.0 software. Three independent measurements were performed to determine IC50 values, and mean values are reported as the final result.

[2] = molecular target: T2, topo IV from E. coli (Escherichia coli, UniProt P20083); assay: relaxation HTS plate assay; type: biochemical; settings: IC50
T2 construct: purchased Inspiralis
Method: as §1, §2

[3] = system: A. baumannii ATCC 17978; assay: MIC broth microdilution (CLSI); type: cell-based; settings: Acinetobacter baumannii, ATCC17978
Method: (§3) Cation-adjusted Mueller Hinton broth 2 (MHBII) was used for bacterial growth under standard laboratory conditions and for antimicrobial susceptibility tests. MHBII broth was prepared by dissolving 22 g of MHBII powder [containing beef extract (3 g), acid hydrolysate of casein (17.5 g), and starch (1.5 g); Becton Dickinson and Co.] in 1 L of water. To prepare MHBII agar, 14 g of agar (Bacto; Molar Chemicals) was added to 1 L of broth.
(§4) Bacterial strains were inoculated onto MHBII agar plates and grown overnight at 37 °C. Next, three individual colonies from each strain were inoculated into 1 mL of MHBII medium and propagated at 37 °C overnight, with agitation at 250 rpm. For Enterococcus sp., the cells were plated in brain–heart infusion [(BHI) medium] agar plates, and BHI broth was used to determine the MICs. […] Following the dilutions, each well was seeded with 5 × 10^4 bacterial cells (in 100 μL final volume). Each measurement was performed in three parallel replicates, and to avoid possible edge effects in the microwell plates, the outside rows (A, H) were filled with sterile medium. Following the inoculations, the plates were covered with the lids and wrapped in polyethylene plastic bags, to minimize evaporation but to allow O2 transfer. […] After incubation, the OD600 of each well was measured using a microplate reader (Synergy 2; Biotek).

[4] = system: S. aureus ATCC 29213; assay: MIC broth microdilution (CLSI); type: cell-based; settings: Staphylococcus aureus, ATCC29213
Method: as §3, §4

[5] = system: Enterococcus faecalis ATCC 29212; assay: MIC broth microdilution (CLSI); type: cell-based, E. faecalis; settings: Enterococcus faecalis, ATCC29212; read-out: MIC
Method: as §3, with “MICs (Tables 1 and S1–S3) were determined with a standard serial broth microdilution technique according to Clinical and Laboratory Standards Institute (CLSI) guidelines.[45] Cation-adjusted” for “Cation-adjusted”
(§5) Bacterial strains were inoculated onto MHBII agar plates and grown overnight at 37 °C. Next, three individual colonies from each strain were inoculated into 1 mL of MHBII medium and propagated at 37 °C overnight, with agitation at 250 rpm. For Enterococcus sp., the cells were plated in brain–heart infusion [(BHI) medium] agar plates, and BHI broth was used to determine the MICs. […] The highest final DMSO concentration in the experiments was 0.64% (in the case of the 64 μg/mL concentration of the inhibitor). Following the dilutions, each well was seeded with 5 × 10^4 bacterial cells (in 100 μL final volume). Each measurement was performed in three parallel replicates, and to avoid possible edge effects in the microwell plates, the outside rows (A, H) were filled with sterile medium. Following the inoculations, the plates were covered with the lids and wrapped in polyethylene plastic bags, to minimize evaporation but to allow O2 transfer. The plates were incubated at 37 °C under continuous shaking at 150 rpm for 18 h. After incubation, the OD600 of each well was measured using a microplate reader (Synergy 2; Biotek). The MICs were defined as the antibiotic concentrations which inhibited the growth of the bacterial cultures; that is, the drug concentration where the average OD600 increment of the three technical replicates was below 1.5-fold the background OD increment.

[6] = system: E. coli ATCC 25922; assay: MIC broth microdilution (CLSI); type: cell-based; settings: Escherichia coli, ATCC25922; read-out: MIC
Method: as §3, with “MICs (Tables 1 and S1–S3) were determined with a standard serial broth microdilution technique according to Clinical and Laboratory Standards Institute (CLSI) guidelines.[45] Cation-adjusted” for “Cation-adjusted”
as §5

[7] = system: Enterobacter cloacae spp. cloacae ATCC 13047; assay: MIC broth microdilution (CLSI); type: cell-based; settings: Enterobacter cloacae, ATCC13047; read-out: MIC
Method: as §3, with “MICs (Tables 1 and S1–S3) were determined with a standard serial broth microdilution technique according to Clinical and Laboratory Standards Institute (CLSI) guidelines.[45] Cation-adjusted” for “Cation-adjusted”
as §5

[8] = system: K. pneumoniae ATCC 10031; assay: MIC broth microdilution (CLSI); type: cell-based; settings: Klebsiella pneumoniae, ATCC10031; read-out: MIC
Method: as §3, with “MICs (Tables 1 and S1–S3) were determined with a standard serial broth microdilution technique according to Clinical and Laboratory Standards Institute (CLSI) guidelines.[45] Cation-adjusted” for “Cation-adjusted”
as §5

[9] = system: P. aeruginosa ATCC 27853; assay: MIC broth microdilution (CLSI); type: cell-based; settings: Pseudomonas aeruginosa, ATCC27853; read-out: MIC
Method: as §3, with “MICs (Tables 1 and S1–S3) were determined with a standard serial broth microdilution technique according to Clinical and Laboratory Standards Institute (CLSI) guidelines.[45] Cation-adjusted” for “Cation-adjusted”
as §5

[10] = system: S. aureus (MRSA) ATCC 43300; assay: MIC broth microdilution (CLSI); type: cell-based; settings: Staphylococcus aureus
Method: as §3, with “MICs (Tables 1 and S1–S3) were determined with a standard serial broth microdilution technique according to Clinical and Laboratory Standards Institute (CLSI) guidelines.[45] Cation-adjusted” for “Cation-adjusted”
as §5

[11] = system: 3 sensitive and 7 MDR A. baumannii clinical isolates; assay: MIC, Hungarian clinical isolates and controls (384-well); type: cell-based
[12] = system: Chinese hamster ovary K1 cells; assay: in vitro micronucleus test; settings: without S9, 1 µM
[13] = system: S. aureus ATCC 700699 (VISA); type: in vivo, female CD-1 mice
Method: The neutropenic mouse thigh infection model study was performed by NeoSome Life Sciences, LLC (Lexington, MA, USA) according to NeoSome Institutional Animal Care and Use Committee (IACUC) policies and guidelines as well as NIH’s Office of Laboratory Animal Welfare (OLAW) standards.
Neutropenic mouse thigh infection experiments were performed on female CD-1 mice (Charles River Laboratories, USA). To induce neutropenia, mice received two doses of cyclophosphamide on days −4 and −1 with 150 and 100 mg/kg delivered intraperitoneally (IP), respectively. The inoculum of the testing strain, S. aureus ATCC 700699-P1 (VISA), was prepared from overnight agar plate cultures. To prepare bacterial inoculums, a portion of the plate was resuspended in sterile saline and adjusted to an OD of 0.12 at 625 nm. Next, the resulted bacterial suspension was further diluted to reach an infecting inoculum of 6.0 × 10^5 cfu per each mouse. Plate counts of the inoculum were also performed in each case to confirm the inoculum concentration, and the actual inoculum size was 7.25 × 10^5 cfu/mouse. Mice were inoculated with 100 μL of the prepared bacterial suspension via an intramuscular injection into the right rear thigh. […] The test agent was then dosed via IV administration, to ensure optimal distribution, at 2, 10, and 18 h post-infection. Beginning at 2 h, post-infection mice were dosed with either test article or positive control antibiotic. Mice receiving test agents were dosed intravenously at 10 mL/kg. Linezolid was delivered as a SC dose to ensure optimized exposure, distribution, and efficacy. Four animals were dosed per group. One group of four mice was euthanized at the initiation of therapy (t = 2 h) and cfus determined. All remaining mice were euthanized at 26 h post-infection. At termination, thighs were aseptically excised, weighed, and homogenized to a uniform consistency in 2 mL of sterile saline. The homogenate was serially diluted and plated on bacterial growth media. The cfus were enumerated after overnight incubation.

T2 sequence (P0AFI2 whole entry): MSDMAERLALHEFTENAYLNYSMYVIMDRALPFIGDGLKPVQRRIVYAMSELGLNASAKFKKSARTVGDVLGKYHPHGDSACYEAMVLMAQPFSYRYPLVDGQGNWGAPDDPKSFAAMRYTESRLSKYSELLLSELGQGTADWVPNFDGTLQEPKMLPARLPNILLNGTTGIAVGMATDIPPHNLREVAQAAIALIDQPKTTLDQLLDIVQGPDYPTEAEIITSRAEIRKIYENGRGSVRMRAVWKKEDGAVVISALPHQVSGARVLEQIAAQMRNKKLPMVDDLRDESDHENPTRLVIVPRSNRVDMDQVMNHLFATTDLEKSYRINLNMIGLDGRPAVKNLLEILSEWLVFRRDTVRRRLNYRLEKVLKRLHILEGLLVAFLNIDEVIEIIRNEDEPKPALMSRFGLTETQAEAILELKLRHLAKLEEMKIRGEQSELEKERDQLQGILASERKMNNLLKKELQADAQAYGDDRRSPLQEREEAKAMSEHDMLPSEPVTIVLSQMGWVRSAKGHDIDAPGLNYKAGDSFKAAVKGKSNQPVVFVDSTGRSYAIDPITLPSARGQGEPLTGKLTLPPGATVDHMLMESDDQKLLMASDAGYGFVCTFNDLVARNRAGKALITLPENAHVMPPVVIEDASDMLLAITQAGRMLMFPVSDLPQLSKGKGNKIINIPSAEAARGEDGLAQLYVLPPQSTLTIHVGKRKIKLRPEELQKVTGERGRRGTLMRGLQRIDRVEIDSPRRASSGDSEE
T2 sequence (P20083 whole entry): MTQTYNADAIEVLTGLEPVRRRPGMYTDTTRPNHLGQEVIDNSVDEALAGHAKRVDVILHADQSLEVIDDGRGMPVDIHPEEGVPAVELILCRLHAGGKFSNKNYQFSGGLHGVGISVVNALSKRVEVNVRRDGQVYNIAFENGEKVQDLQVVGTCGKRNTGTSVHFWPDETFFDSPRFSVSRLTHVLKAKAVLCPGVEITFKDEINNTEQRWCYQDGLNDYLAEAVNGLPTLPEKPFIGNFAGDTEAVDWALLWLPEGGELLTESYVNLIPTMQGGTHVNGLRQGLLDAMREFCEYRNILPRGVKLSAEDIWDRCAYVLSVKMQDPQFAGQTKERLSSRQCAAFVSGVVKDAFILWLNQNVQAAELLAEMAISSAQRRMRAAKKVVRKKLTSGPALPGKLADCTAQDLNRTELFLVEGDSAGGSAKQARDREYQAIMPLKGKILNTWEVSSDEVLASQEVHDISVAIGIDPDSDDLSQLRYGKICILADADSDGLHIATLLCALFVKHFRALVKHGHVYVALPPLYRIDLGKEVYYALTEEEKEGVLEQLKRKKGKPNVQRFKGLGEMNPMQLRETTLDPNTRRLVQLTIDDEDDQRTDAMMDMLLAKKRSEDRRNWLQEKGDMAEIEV

In the case of `COCCCNc1cc(C(=O)O)cc2sc(NC(=O)c3[nH]c(C)c(Cl)c3Cl)nc12.N` [8c, 2-(3,4-Dichloro-5-methyl-1H-pyrrole-2-carboxamido)-4-((3-methoxypropyl)amino)benzo[d]thiazole-6-carboxylic Acid], the IC50 [1] is reported as 15 ± 5 nM, the IC50 [2] is reported as 0.19 ± 0.006 µM and the MIC ([3]; read-out: MIC) is reported as 2 µg/mL. For the same compound, the MIC ([3]; read-out: MIC [µg/mL] (A. baumannii ATCC 17978)) was 2 µg/mL, the MIC ([4]; read-out: MIC) was less than 0.0312 µg/mL and the MIC ([4]; read-out: MIC [µg/mL](S. aureus ATCC 29213)) was less than 0.0312 µg/mL. For the same compound, the MIC [5] was greater than 0.0312 mg/L, the MIC [6] was 8 mg/L and the MIC [7] was greater than 64 mg/L. The MIC [8] was 2 mg/L, the MIC [9] was 8 mg/L and the MIC ([10]; read-out: MIC) was less than 0.0312 µg/mL. It also gave an MIC ([10]; read-out: MIC [µg/mL](S. aureus MRSA ATCC4330)) of less than 0.0312 µg/mL.

With `NCC[C@H](O)C(=O)N[C@@H]1C[C@H](N)[C@@H](O[C@H]2O[C@H](CN)[C@@H](O)[C@H](O)[C@H]2O)[C@H](O)[C@H]1O[C@H]1O[C@H](CO)[C@@H](O)[C@H](N)[C@H]1O` [Amikacin, amikacin] the “Cumulative % at MIC” value ([11]; n=10, MIC 2 µg/mL) was 10% and the “Cumulative % at MIC” value ([11]; n=10, MIC 256 µg/mL) was 100%.

For `C[C@@H](O)[C@H]1C(=O)N2C(C(=O)O)=C(S[C@@H]3CN[C@H](CNS(N)(=O)=O)C3)[C@H](C)[C@H]12` [Doripenem, doripenem], the “Cumulative % at MIC” value ([11]; n=10, MIC 0.0625 µg/mL) was 10%, the “Cumulative % at MIC” value ([11]; n=10, MIC 2 µg/mL) was 30% and the “Cumulative % at MIC” value ([11]; n=10, MIC 128 µg/mL) was 60%. The “Cumulative % at MIC” value ([11]; n=10, MIC 256 µg/mL) was 100% and the “Cumulative % at MIC” value ([11]; n=10, MIC […]) was 20%.

Compound `CO[C@@]12[C@H](COC(N)=O)C3=C(C(=O)C(C)=C(N)C3=O)N1C[C@@H]1N[C@@H]12` [Mitomycin C] has a No. binucleate cells [12] of 920.

With `NC[C@H]1O[C@H](O[C@H]2[C@H](O)[C@@H](O[C@H]3O[C@H](CO)[C@@H](O)[C@H](N)[C@H]3O)[C@H](N)C[C@@H]2N)[C@H](N)C[C@@H]1O` [Tobramycin, tobramycin] the “Cumulative % at MIC” value ([11]; n=10, MIC 1 µg/mL) was 10%, the “Cumulative % at MIC” value ([11]; n=10, MIC 2 µg/mL) was 20% and the “Cumulative % at MIC” value ([11]; n=10, MIC […] µg/mL) was 70%. The “Cumulative % at MIC” value ([11]; n=10, MIC 256 µg/mL) was 100% and the “Cumulative % at MIC” value ([11]; n=10, MIC […] µg/mL) was 60%.

With `CC(=O)NC[C@H]1CN(c2ccc(N3CCOCC3)c(F)c2)C(=O)O1` [linezolid] the “Change in log10CFU/gr of thigh from 2 hour control” value ([13]; 50 mg/kg BID/SC) was -0.61, the “Average log10CFU/gr of thigh” value ([13]; 50 mg/kg BID/SC, 26 h) was 5.69 and the “reduction compared to 2 hour infection controls” value ([13]; 50 mg/kg SC (BID)) was 0.61 log10 cfu. For the same compound, the “reduction compared to 26 hour infection controls” value ([13]; 50 mg/kg SC (BID)) was 2.41 log10 cfu, the “CFU/ g of thigh, single animals” value ([13]; linezolid group) was 7.27E+05 and 7.86E+05 and 5.42E+05 and 1.84E+05 and the “log CFU, single animals” value ([13]; linezolid group) was 5.86 and 5.90 and 5.73 and 5.26.

For colistin, the “Cumulative % at MIC” value [11] was 50% and 70% and 100% and the “MIC inhibiting all strains” value ([11]; all 10 isolates) was 4 mg/L.

For imipenem/relebactame, the “Cumulative % at MIC” value ([11]; n=10, MIC 0.5 µg/mL) was 20%, the “Cumulative % at MIC” value ([11]; n=10, MIC 2 µg/mL) was 30% and the “Cumulative % at MIC” value ([11]; n=10, MIC 64 µg/mL) was 70%. The “Cumulative % at MIC” value ([11]; n=10, MIC 128 µg/mL) was 90% and the “Cumulative % at MIC” value ([11]; n=10, MIC 256 µg/mL) was 100%.

trimethoprim/sulfamethoxazole was tested, and the “Cumulative % at MIC” value ([11]; n=10, MIC […] µg/mL) was 20%, the “Cumulative % at MIC” value ([11]; n=10, MIC 32 µg/mL) was 70% and the “Cumulative % at MIC” value ([11]; n=10, MIC 64 µg/mL) was 100%.
